Test systems include NCI-H460 lung; SF-295 CNS; SR leukemia; SK-MEL-28 melanoma; A498 renal; OVCAR-3 ovarian; HOP-92 NSCLC; HCT-15 colon; LOX IMVI melanoma; SNB-19 CNS.
Experiment in all cases: DTP human tumour cell line panel, 48 h

As usually defined, the GI50 is the concentration that inhibits growth by half. One may read the TGI as the concentration giving total growth inhibition.

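Tested at 5 concentrations; 48 h exposure; 96-well plates; endpoints linearly interpolated, else capped at highest concentration. GI50 = concentration required for 50% inhibition of growth. TGI marks complete inhibition of growth.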 Bounds are passed on as bounds.

On to `CCOc1ccccc1-n1c(CN2CCN(C(=O)COc3ccc(CNCCCCCCN4C5CCCC4CC(OC(=O)Nc4cc(C)ccc4OC)C5)cc3)CC2)nc2ccccc2c1=O` (stereo not drawn), for which the GI50 in the test on NCI-H460 lung is 0.806 µM; with SF-295 CNS it was 1.66 µM; in the test on SR leukemia it was 0.656 µM; in the test with SK-MEL-28 melanoma it was 1.81 µM; with A498 renal, 2.11 µM; in the test with OVCAR-3 ovarian it was 1.78 µM. The GI50 in the test with HOP-92 NSCLC was 1.37 µM; in the test on HCT-15 colon it was 2.23 µM; with LOX IMVI melanoma, 0.582 µM; in the test with SNB-19 CNS, 1.76 µM. Moreover, the TGI was 1.94 µM with NCI-H460 lung; 3.27 µM in the test on SF-295 CNS; 1.59 µM in the test on SR leukemia; 3.25 µM in the test with SK-MEL-28 melanoma; 4.64 µM in the test on A498 renal; 3.49 µM with OVCAR-3 ovarian. The concentration for total growth inhibition (TGI) in the test with HOP-92 NSCLC was determined as 2.76 µM; in the test on HCT-15 colon it was 5.4 µM; with LOX IMVI melanoma, 1.08 µM; in the test on SNB-19 CNS, 3.35 µM.

As to `Cc1cc(=O)n2[nH]c(-c3ccc(C(C)(C)C)cc3)cc2n1`, the GI50 with NCI-H460 lung is 3.03 µM; in the test on SF-295 CNS it was 2.47 µM; in the test on SR leukemia it was 8.03 µM; in the test on SK-MEL-28 melanoma it was 20.6 µM; in the test on A498 renal, 1.54 µM; in the test on OVCAR-3 ovarian, 3.24 µM. In addition, the GI50 is 6.6 µM with HOP-92 NSCLC, 5.79 µM with HCT-15 colon, 7.39 µM with LOX IMVI melanoma and 10.1 µM in the test on SNB-19 CNS. Also, the total growth inhibition concentration (TGI) in the test with NCI-H460 lung is 38 µM; in the test with SF-295 CNS, 22.7 µM; in the test on SR leukemia it was over 100 µM; in the test on SK-MEL-28 melanoma, over 100 µM; in the test with A498 renal, 36.9 µM; in the test on OVCAR-3 ovarian, 43.5 µM. In addition, the concentration for total growth inhibition (TGI) in the test with HOP-92 NSCLC was 51.6 µM; in the test with HCT-15 colon, over 100 µM; in the test with LOX IMVI melanoma, 61.6 µM; in the test with SNB-19 CNS, over 100 µM.

`CC(=O)[O][Hg][c]1c(N)c(C)cc(C)c1F`: the GI50 was 1.74 µM in the test on NCI-H460 lung; 7.92 µM in the test on SF-295 CNS; 0.338 µM with SR leukemia; 1.37 µM in the test with SK-MEL-28 melanoma; 5.35 µM with A498 renal; 1.01 µM in the test with OVCAR-3 ovarian. In addition, the GI50 in the test with HOP-92 NSCLC was 1.53 µM; with HCT-15 colon it was 1.01 µM; in the test with LOX IMVI melanoma, 0.833 µM; in the test on SNB-19 CNS, 1.99 µM. Besides, the total growth inhibition concentration (TGI) in the test with NCI-H460 lung was found to be 4.3 µM; with SF-295 CNS, 21.8 µM; with SK-MEL-28 melanoma it was 2.83 µM; in the test on A498 renal it was 15.8 µM; in the test with OVCAR-3 ovarian, 2.28 µM; in the test on HOP-92 NSCLC, 2.92 µM. Further, the TGI with HCT-15 colon was found to be 2.55 µM; with LOX IMVI melanoma, 2.54 µM; in the test on SNB-19 CNS, 5.13 µM.

As to `COc1ccc(-c2cc(-c3ccc(Nc4nc(Nc5ccccc5)nc(Nc5ccc(Cl)cc5)n4)cc3)nc(N)c2C#N)cc1`, the GI50 in the test with NCI-H460 lung is 2.18 µM; in the test on SF-295 CNS, 1.54 µM; with SR leukemia it was 0.582 µM; in the test with SK-MEL-28 melanoma it was 0.857 µM; with A498 renal, 2.49 µM; with OVCAR-3 ovarian it was 0.761 µM. The GI50 in the test on HOP-92 NSCLC is 0.782 µM; with HCT-15 colon it was 1.2 µM; in the test with LOX IMVI melanoma it was 0.837 µM; in the test on SNB-19 CNS it was over 24.8 µM. The TGI in the test on NCI-H460 lung is over 39 µM; with SF-295 CNS, 7.28 µM; in the test on SR leukemia, 2.94 µM; with SK-MEL-28 melanoma it was 1.76 µM; in the test on A498 renal it was 11.1 µM; in the test on OVCAR-3 ovarian, 1.52 µM. The total growth inhibition concentration (TGI) was 2.62 µM in the test with HOP-92 NSCLC, 3.68 µM in the test with HCT-15 colon, 1.58 µM with LOX IMVI melanoma and over 50 µM in the test with SNB-19 CNS.

As for `Cn1ccnc1C(=O)/C=C/c1ccc(CC(=O)Nc2ccc(Br)cc2)cc1`, the GI50 with NCI-H460 lung is 3 µM; in the test with SF-295 CNS it was 3.22 µM; in the test with SR leukemia it was 0.575 µM; with SK-MEL-28 melanoma, 3.32 µM; in the test on A498 renal, 4.35 µM; in the test with OVCAR-3 ovarian it was 4.02 µM. The GI50 was 3.15 µM in the test on HOP-92 NSCLC, 2.5 µM in the test with HCT-15 colon, 2.07 µM in the test with LOX IMVI melanoma and 2.61 µM in the test on SNB-19 CNS. In addition, the total growth inhibition concentration (TGI) is 8.51 µM in the test with NCI-H460 lung; 8.89 µM in the test on SF-295 CNS; over 16.7 µM in the test with SR leukemia; 7.63 µM in the test on SK-MEL-28 melanoma; 12.6 µM in the test on A498 renal; 14.4 µM with OVCAR-3 ovarian. Also, the TGI in the test on HOP-92 NSCLC was 8.26 µM; with HCT-15 colon, over 16.7 µM; in the test on LOX IMVI melanoma, 4.28 µM; in the test with SNB-19 CNS it was 5.75 µM.

Turning to `COc1cc(/C=C/c2cc(/C=C/c3ccc(O)c(OC)c3)n(C(=O)Nc3ccc(F)cc3)n2)ccc1O`, the GI50 is 0.546 µM in the test on NCI-H460 lung; 2.63 µM in the test with SF-295 CNS; 0.278 µM in the test with SR leukemia; 0.912 µM in the test with SK-MEL-28 melanoma; 2.42 µM in the test on A498 renal; 0.474 µM in the test with OVCAR-3 ovarian. Also, the GI50 is 2.12 µM with HOP-92 NSCLC, 0.566 µM with HCT-15 colon, 0.476 µM with LOX IMVI melanoma and 1.23 µM in the test on SNB-19 CNS. In addition, the total growth inhibition concentration (TGI) worked out at 12.4 µM in the test on NCI-H460 lung; 29.7 µM with SF-295 CNS; 7.84 µM with SK-MEL-28 melanoma; 6.46 µM in the test on A498 renal; 3.13 µM in the test with OVCAR-3 ovarian; 8.07 µM in the test with HOP-92 NSCLC. The figures for the TGI with HCT-15 colon, with LOX IMVI melanoma and in the test on SNB-19 CNS were 21.8 µM, 4.26 µM and 22.7 µM, respectively.

For `Cc1cc(=O)[nH]c2cc3oc4ccccc4c3cc12`, the concentration for total growth inhibition (TGI) in the test on NCI-H460 lung is over 100 µM; in the test on SF-295 CNS, over 100 µM; in the test on SR leukemia it was over 44.3 µM; with SK-MEL-28 melanoma it was over 100 µM; in the test with A498 renal, over 100 µM; in the test with OVCAR-3 ovarian, over 89.4 µM. For the same molecule, the TGI in the test on HOP-92 NSCLC, in the test on HCT-15 colon, with LOX IMVI melanoma and in the test on SNB-19 CNS was over 100 µM throughout.

For `C/C(CCn1[nH]c(=O)ccc1=O)=N\O`, the TGI in the test with NCI-H460 lung, in the test on SF-295 CNS, with SR leukemia, in the test on SK-MEL-28 melanoma, in the test on A498 renal and in the test on OVCAR-3 ovarian was over 100 µM throughout. Moreover, the concentration for total growth inhibition (TGI) in the test on HOP-92 NSCLC, in the test on HCT-15 colon, with LOX IMVI melanoma and with SNB-19 CNS was over 100 µM each time.

The record behind these values is PubChem BioAssay (NCI).
